Laboratory results taken from patent publication US20260250318A1, “COMPOSITIONS AND METHODS FOR CROSSING THE BLOOD BRAIN BARRIER” (VOYAGER THERAPEUTICS, INC., priority 2022, published 2026).

Test system: brains, heart, liver, muscle, and DRG of the NHPs
Assay: Maturation of TTM-001 and TTM-002 capsids, NGS enrichment in NHP tissues
Type: in vivo
Description: This Example describes maturation of the AAV9 capsid variants, TTM-001 (SEQ ID NO: 981 (amino acid) and 983 (DNA), comprising SEQ ID NO: 941 (encoded by SEQ ID NO: 942)) and TTM-002 (SEQ ID NO: 982 (amino acid) and 984 (DNA), comprising SEQ ID NO: […] (encoded by SEQ ID NO: 944)) in NHPs to further enhance their transduction and biodistribution in the central nervous system as well as other tissues, and evolve the AAV capsid variants to provide further cross-species compatibility. Two approaches were used to mature the TTM-001 and TTM-002 capsid sequences in order to randomize and mutate within and around the peptide insert comprised within loop IV of the capsid variant. […] In the first maturation approach, sets of three contiguous amino acids were randomized across the mutagenesis region in the TTM-001 and TTM-002 sequences, which spanned from position 450 to position 466, numbered according to SEQ ID NO: 981 and 982. In the second maturation approach, mutagenic primers were used to introduce point mutations at a low frequency, scattered across the mutagenesis region in the TTM-001 and TTM-002 sequences ranging from position 449 to position 466, numbered according to SEQ ID NO: 981 and 982. AAV capsid variants arising from each maturation approach for TTM-001 and TTM-002 were pooled together, for subsequent testing and characterization in NHPs.
The library of pooled matured AAV capsid variants generated using the first maturation approach and the second maturation approach for the TTM-001 and TTM-002 AAV capsid variants were injected into two NHPs. […] Following RNA recovery and RT-PCR amplification, a systematic NGS enrichment analysis was performed to calculate the fold enrichment ratio relative to an AAV9 control, and the peptides comprised within the variants were identified.
Following the RNA recovery and NGS analysis from the second maturation approach, approximately 680,000 capsid variants were identified. The 680,000 matured capsid variants were then filtered based on samples with a raw virus count greater than 10 and a coefficient of variance (CV) of less than 1, which was calculated for each peptide across the brain samples taken from the two NHPs. […] Using this filtering criteria, this led to approximately 64,000 matured capsid variants.

[1] = NGS fold-enrichment, DRG, NHP, relative to AAV9
[2] = NGS fold-enrichment, brain, NHP, relative to AAV9
[3] = NGS fold-enrichment, heart, NHP, relative to AAV9
[4] = NGS fold-enrichment, liver DNA, NHP, relative to AAV9
[5] = NGS fold-enrichment, liver RNA, NHP, relative to AAV9
[6] = NGS fold-enrichment, muscle, NHP, relative to AAV9
[7] = NHP DRG, NGS, relative to AAV9 control
[8] = NHP brain, NGS, relative to AAV9 control
[9] = NHP heart, NGS, relative to AAV9 control
[10] = NHP liver DNA, NGS, relative to AAV9 control
[11] = NHP liver RNA, NGS, TTM-001 and TTM-002 matured AAV capsid variants, relative to AAV9 control
[12] = NHP muscle, NGS, relative to AAV9 control

Row | Sequence | Fold Enrichment relative to AAV9, DRG (NHP) [1] [fold] | Fold Enrichment relative to AAV9, Brain (NHP) [2] [fold] | Fold Enrichment relative to AAV9, Heart (NHP) [3] [fold] | Fold Enrichment relative to AAV9, Liver DNA (NHP) [4] [fold] | Fold Enrichment relative to AAV9, Liver RNA (NHP) [5] [fold] | Fold Enrichment relative to AAV9, Muscle (NHP) [6] [fold] | Fold Enrichment relative to AAV9, DRG (NHP) [7] [fold] | Fold Enrichment relative to AAV9, Brain (NHP) [8] [fold] | Fold Enrichment relative to AAV9, Heart (NHP) [9] [fold] | Fold Enrichment relative to AAV9, Liver DNA (NHP) [10] [fold] | Fold Enrichment relative to AAV9, Liver RNA (NHP) [11] [fold] | Fold Enrichment relative to AAV9, Muscle (NHP) [12] [fold]
1 | KTINGSGSPHSCQSNQQT | 0.000 | 0.000 | 0.000 | 1.468 | 10.631 | 0.000 | – | – | – | – | – | –
2 | KTINGSGSPHSCSRNQQT | – | – | – | – | – | – | 0.000 | 0.000 | 0.000 | 4.293 | 40.372 | 0.000
3 | KTINGSGSPHSFFGNQQT | – | – | – | – | – | – | 0.000 | 0.000 | 0.000 | 6.101 | 38.088 | 0.000
4 | KTINGSGSPHSFPFNQQT | – | – | – | – | – | – | 0.000 | 0.000 | 0.000 | 4.693 | 38.584 | 0.000
5 | KTINGSGSPHSFQINQQT | – | – | – | – | – | – | 0.000 | 0.308 | 1.568 | 0.269 | 17.418 | 0.000
6 | KTINGSGSPHSFRPNQQT | – | – | – | – | – | – | 0.000 | 0.000 | 0.000 | 9.191 | 44.801 | 0.000
7 | KTINGSGSPHSFRYNQQT | – | – | – | – | – | – | 0.000 | 0.000 | 0.000 | 4.148 | 21.097 | 0.000
8 | KTINGSGSPHSFTCNQQT | – | – | – | – | – | – | 0.000 | 0.000 | 0.000 | 2.155 | 63.936 | 271.289
9 | KTINGSGSPHSFTPNQQT | – | – | – | – | – | – | 0.000 | 0.000 | 0.000 | 1.036 | 24.227 | 0.000
10 | KTINGSGSPHSFWSNQQT | – | – | – | – | – | – | 0.000 | 0.000 | 0.000 | 1.345 | 22.857 | 0.000
11 | KTINGSGSPHSGACNQQT | – | – | – | – | – | – | 0.000 | 0.000 | 0.000 | 3.215 | 39.163 | 4733.916
12 | KTINGSGSPHSGCQNQQT | – | – | – | – | – | – | 0.000 | 0.000 | 0.000 | 1.981 | 24.818 | 0.000
13 | KTINGSGSPHSGKRNQQT | – | – | – | – | – | – | 0.000 | 0.000 | 0.000 | 5.396 | 35.120 | 0.000
14 | KTINGSGSPHSKAARRQT | – | – | – | – | – | – | 0.000 | 0.000 | 0.000 | 6.633 | 19.998 | 0.000
15 | KTINGSGSPHSKACISQT | – | – | – | – | – | – | 0.000 | 0.000 | 0.000 | 0.240 | 17.371 | 0.000
16 | KTINGSGSPHSKACQFQT | – | – | – | – | – | – | 0.000 | 0.000 | 0.000 | 8.562 | 17.640 | 9.605
17 | KTINGSGSPHSKACRLQT | – | – | – | – | – | – | 0.000 | 0.000 | 0.000 | 6.537 | 12.297 | 0.000
18 | KTINGSGSPHSKACSRQT | – | – | – | – | – | – | 0.000 | 0.000 | 0.000 | 2.468 | 42.696 | 0.000
19 | KTINGSGSPHSKAFSWQT | – | – | – | – | – | – | 0.000 | 0.000 | 0.000 | 1.805 | 51.304 | 0.000
20 | KTINGSGSPHSKAFYIQT | – | – | – | – | – | – | 0.000 | 0.000 | 0.000 | 0.239 | 17.172 | 0.000
21 | KTINGSGSPHSKAFYRQT | – | – | – | – | – | – | 0.000 | 0.000 | 0.000 | 3.577 | 77.541 | 0.000
22 | KTINGSGSPHSKAHARQT | – | – | – | – | – | – | 0.000 | 0.000 | 0.000 | 1.800 | 17.075 | 0.000
23 | KTINGSGSPHSKAKGWQT | 0.000 | 0.000 | 0.000 | 1.827 | 10.450 | 0.000 | – | – | – | – | – | –
24 | KTINGSGSPHSKAKKVQT | 0.000 | 0.000 | 0.000 | 3.974 | 10.102 | 0.000 | – | – | – | – | – | –
25 | KTINGSGSPHSKALRCQT | – | – | – | – | – | – | 0.000 | 0.000 | 0.000 | 1.892 | 17.283 | 0.000
